Read-outs that look alike come from different tables or passages of the source. Where a SMILES comes first, the peptide text is derived from it. [ ]: non-standard residue; d: D form. Aoe = N[C@@H](CCCCCC(=O)[C@@H]1CO1)C(=O)O
Columns and labels:
[1] = system: P. falciparum 3D7 parasites; assay: P. falciparum growth inhibition assay, 1-cycle (72 h treatment), SYBR DNA staining (library screen at 2 μg/mL and dose-response); format: cell-based, Plasmodium falciparum; conditions: % growth; for activity at 2 µg/mL: Plasmodium falciparum
[2] = system: P. falciparum 3D7 parasites; assay: P. falciparum growth inhibition assay, 2-cycle (120 h treatment), delayed-death screen and dose-response; format: cell-based, Plasmodium falciparum; conditions: % growth; for activity at 2 µg/mL: Plasmodium falciparum
[3] = system: T. gondii RH strain (RH-Tub-eYFP) tachyzoites; assay: microbe, parasite or virus in culture; format: cell-based, Toxoplasma gondii; conditions: 72 h, 72 h, % growth; for percent parasite growth at 2 µg/mL: Toxoplasma gondii
[4] = 3D7, library screen at 2 μg/mL, 72 h, replicate 1, read-out: Pf_72h_%Growth_Rep1
[5] = 3D7, library screen at 2 μg/mL, 72 h, replicate 2, read-out: Pf_72h_%Growth_Rep2
[6] = 3D7, library screen at 2 μg/mL, 120 h, replicate 1, read-out: Pf_120h_%Growth_Rep1
[7] = 3D7, library screen at 2 μg/mL, 120 h, replicate 2, read-out: Pf_120h_%Growth_Rep2
[8] = library screen at 2 μg/mL, replicate 1, read-out: Tg_72h_%Growth_Rep1
[9] = library screen at 2 μg/mL, replicate 2, read-out: Tg_72h_%Growth_Rep2
[10] = P. falciparum 3D7, 72 h, library screen at 2 μg/mL, replicate 1
[11] = P. falciparum 3D7, 72 h, library screen at 2 μg/mL, replicate 2
[12] = P. falciparum 3D7, 120 h, library screen at 2 μg/mL, replicate 1
[13] = P. falciparum 3D7, 120 h, library screen at 2 μg/mL, replicate 2
[14] = T. gondii RH, library screen at 2 μg/mL, replicate 1
[15] = T. gondii RH, library screen at 2 μg/mL, replicate 2
[16] = library screen at 2 μg/mL, 72 h, replicate 1
[17] = library screen at 2 μg/mL, 72 h, replicate 2
[18] = library screen at 2 μg/mL, 120 h, replicate 1
[19] = library screen at 2 μg/mL, 120 h, replicate 2
[20] = library screen at 2 μg/mL, replicate 1
[21] = library screen at 2 μg/mL, replicate 2
[22] = T. gondii, parasite screen 2 μg/mL, replicate 1, read-out: Tg_72h_%Growth_Rep1
[23] = T. gondii, parasite screen 2 μg/mL, replicate 2, read-out: Tg_72h_%Growth_Rep2

[N-]=[N+]=NCC(=O)N[C@H](CO)[C@H](O)c1ccc([N+](=O)[O-])cc1 [Azidamfenicol]
activity at 2 µg/mL [1, 4]: 82.7% | activity at 2 µg/mL [1, 5]: 84.9% | activity at 2 µg/mL [2, 6]: 64.6% | activity at 2 µg/mL [2, 7]: 95.3% | percent parasite growth at 2 µg/mL [3, 8]: 129% | percent parasite growth at 2 µg/mL [3, 9]: 103%

C[C@@]1(CO)[C@H](O)CC[C@@]2(C)[C@H]1CC[C@H]1C[C@@H]3C[C@@]12CC[C@]3(O)CO [Aphidicolin]
activity at 2 µg/mL [1, 4]: 7% | activity at 2 µg/mL [1, 5]: 4.32% | activity at 2 µg/mL [2, 6]: 10.5% | activity at 2 µg/mL [2, 7]: -6.36% | percent parasite growth at 2 µg/mL [3, 8]: 1.91% | percent parasite growth at 2 µg/mL [3, 9]: 0.58%

Cc1cc(O)c(O)c2oc(=O)c3c(O)cc(O)cc3c12 [BIA-H1558]
Pf_72h_%Growth_Rep1 [1, 10]: 87.28% | Pf_72h_%Growth_Rep2 [1, 11]: 114.26% | Pf_120h_%Growth_Rep1 [2, 12]: 93.99% | Pf_120h_%Growth_Rep2 [2, 13]: 107.81% | Tg_72h_%Growth_Rep1 [3, 14]: 100.18% | Tg_72h_%Growth_Rep2 [3, 15]: 87.83%

CCCCCC[C@H]1C(=O)O[C@H](C)[C@H](NC(=O)c2cccc(NC=O)c2O)C(=O)O[C@@H](C)[C@@H]1OC(=O)CC(C)C [Antimycin A1]
Pf_72h_%Growth_Rep1 [1, 16]: 7.57% | Pf_72h_%Growth_Rep2 [1, 17]: 13.46% | Pf_120h_%Growth_Rep1 [2, 18]: -1.25% | Pf_120h_%Growth_Rep2 [2, 19]: 6.08% | Tg_72h_%Growth_Rep1 [3, 20]: 5.65% | Tg_72h_%Growth_Rep2 [3, 21]: 4.89%

CC/C=C\[C@H](O)[C@H](O)C1=C(C)C(=O)[C@]2(O1)C(=O)N[C@@](OC)(C(=O)c1ccccc1)[C@@H]2O [Pseurotin A]
activity at 2 µg/mL ([1]; 3D7, P. falciparum, 72 h, parasite screen 2 μg/mL, replicate 1, read-out: Pf_72h_%Growth_Rep1): 85.8% | activity at 2 µg/mL ([1]; 3D7, P. falciparum, 72 h, parasite screen 2 μg/mL, replicate 2, read-out: Pf_72h_%Growth_Rep2): 95.5% | activity at 2 µg/mL ([2]; 3D7, P. falciparum, 120 h, parasite screen 2 μg/mL, replicate 1, read-out: Pf_120h_%Growth_Rep1): 79.7% | activity at 2 µg/mL ([2]; 3D7, P. falciparum, 120 h, parasite screen 2 μg/mL, replicate 2, read-out: Pf_120h_%Growth_Rep2): 139% | percent parasite growth at 2 µg/mL [3, 22]: 122% | percent parasite growth at 2 µg/mL [3, 23]: 81%

C[C@@H]1NC(=O)[C@H](CCCCCC(=O)[C@@H]2CO2)NC(=O)[C@H]2CCCN2C(=O)[C@H](Cc2ccccc2)NC1=O [Alaninechlamydocin, 1-] (cyclo(AF[dP][Aoe]))
Pf_72h_%Growth_Rep1 [1, 16]: 2.42% | Pf_72h_%Growth_Rep2 [1, 17]: 0.98% | Pf_120h_%Growth_Rep1 [2, 18]: 12.83% | Pf_120h_%Growth_Rep2 [2, 19]: -6.34% | Tg_72h_%Growth_Rep1 [3, 20]: 2.60% | Tg_72h_%Growth_Rep2 [3, 21]: 2.26%

CCCC(=O)OC1C(C)OC(OC2C(C)OC(OC3C(CC=O)CC(C)C(O)C=CC=CCC(C)OC(=O)CC(OC(C)=O)C3OC)C(O)C2N(C)C)CC1(C)O (stereo not drawn) [BIA-L1364]
Pf_72h_%Growth_Rep1 [1, 10]: 50.48% | Pf_72h_%Growth_Rep2 [1, 11]: 43.27% | Pf_120h_%Growth_Rep1 [2, 12]: 4.30% | Pf_120h_%Growth_Rep2 [2, 13]: -1.28% | Tg_72h_%Growth_Rep1 [3, 14]: 19.43% | Tg_72h_%Growth_Rep2 [3, 15]: 27.43%

CC[C@H](C)C(=O)O[C@H]1C[C@H](O)C=C2C=C[C@H](C)[C@H](CC[C@@H](O)C[C@@H](O)CC(=O)O)[C@H]21 [Pravastatin sodium]
activity at 2 µg/mL ([1]; 3D7, 72 h, P. falciparum, 72 h, parasite screen 2 μg/mL, replicate 1, read-out: Pf_72h_%Growth_Rep1): 83.8% | activity at 2 µg/mL ([1]; 3D7, 72 h, P. falciparum, 72 h, parasite screen 2 μg/mL, replicate 2, read-out: Pf_72h_%Growth_Rep2): 99.3% | activity at 2 µg/mL ([2]; 3D7, 120 h, P. falciparum, 120 h, parasite screen 2 μg/mL, replicate 1, read-out: Pf_120h_%Growth_Rep1): 96.8% | activity at 2 µg/mL ([2]; 3D7, 120 h, P. falciparum, 120 h, parasite screen 2 μg/mL, replicate 2, read-out: Pf_120h_%Growth_Rep2): 111% | percent parasite growth at 2 µg/mL [3, 22]: 92.2% | percent parasite growth at 2 µg/mL [3, 23]: 94.6%

— article PMC12396409, “Screening and hit evaluation of a microbial metabolite library against the pathogenic Plasmodium falciparum and Toxoplasma gondii parasites” (International Journal for Parasitology: Drugs and Drug …, 2025)
